Assay results reported in patent publication US9732094B2, “Arylquinazolines” (Merck Patent GmbH, priority 2013, dated 2017).
Where two headings read alike, the source gives them in different places.

Key:
[1] = molecular target: T1, DNA-PK (Homo sapiens (Human), UniProt P78527); assay: DNA-PK assay (biochemical), flashplate 33P-ATP kinase assay
Summary of the method: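 Reactions ran in streptavidin-coated flashplates and were halted by 200 mM EDTA, with a further 30 min at room temperature before saline washing.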

[2] = molecular target: T2, Kv11.1 (hERG) (Homo sapiens (Human), UniProt Q12809)
[3] = molecular target: T2, Kv11.1 (hERG); assay: Kv11.1 ion channel binding assay (Predictor hERG fluorescence polarisation); details: cells marked *: measured using hERG binding assay instead of hERG patch clamp assay; read-out: Ki [Kv1.11 hERG]
Protocol: D) Kv11.1 Ion Channel Binding Assay
Kv11.1 (hERG=human ether a go-go related […]) is a cardiac K^+ channel which should if possible not interact with the test substances. This interaction is determined quantitatively with the aid of the Predictor™ hERG Fluorescence Polarizations (FP) Assays from Life Technologies. In the case of this assay principle, cardiomyocyte cell membranes having a certain proportion of Kv11.1 channels are isolated. A dye-labelled Kv11.1 binding partner gives a high fluorescence polarisation signal by interaction with the Kv11.1. In the case of displacement of the dye, a reduction in the fluorescence polarisation signal occurs.
The assay is carried out automatically as follows: 15 nl of the test substances (highest concentration: 10 mM, 10 concentrations: dilution factors 1:3.16, DMSO) are transferred into an empty microtitre plates having 384 wells by means of an acoustic pipetter. 3 μl of the isolated membranes are subsequently added. Membranes and test substances are incubated at 22° C. for 15 min (+/−5 min). In the next step, the dye-labelled binding partner is added, followed by incubation at 22° C. After incubation for two hours, the measurement of the fluorescence polarisation is carried out on an Envision multimode Reader. Measured raw data are standardised with the aid of Genedata Assay Analyzer. The 1050 and % effect values are calculated in Genedata Condoseo.

[4] = molecular target: DNA-PK phosphorylation at serine 2056 (Homo sapiens (Human), UniProt P78527); assay: DNA-PK phosphorylation at serine 2056 (cellular), bleomycin-treated HCT116 cells, ELISA; type: cell-based; details: cellular DNA-PK phosphorylation at serine 2056, HCT116; read-out: IC50 pDNA-PK
Summary of the method: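 Chemiluminescent ELISA read-out; phospho-specific signal normalised to total DNA-PKcs. Cells (HCT116) exposed 6 h to test compound plus 10 μM bleomycin to induce double-strand breaks; DMSO control served as blank.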

[5] = test system: kinases of the PI3K isoenzyme family; details: cited from earlier work
[6] = molecular target: T1, DNA-PK; details: ATP-competitive; Hardcastle et al. (2005); cited from earlier work

T2 sequence (Q12809 whole entry): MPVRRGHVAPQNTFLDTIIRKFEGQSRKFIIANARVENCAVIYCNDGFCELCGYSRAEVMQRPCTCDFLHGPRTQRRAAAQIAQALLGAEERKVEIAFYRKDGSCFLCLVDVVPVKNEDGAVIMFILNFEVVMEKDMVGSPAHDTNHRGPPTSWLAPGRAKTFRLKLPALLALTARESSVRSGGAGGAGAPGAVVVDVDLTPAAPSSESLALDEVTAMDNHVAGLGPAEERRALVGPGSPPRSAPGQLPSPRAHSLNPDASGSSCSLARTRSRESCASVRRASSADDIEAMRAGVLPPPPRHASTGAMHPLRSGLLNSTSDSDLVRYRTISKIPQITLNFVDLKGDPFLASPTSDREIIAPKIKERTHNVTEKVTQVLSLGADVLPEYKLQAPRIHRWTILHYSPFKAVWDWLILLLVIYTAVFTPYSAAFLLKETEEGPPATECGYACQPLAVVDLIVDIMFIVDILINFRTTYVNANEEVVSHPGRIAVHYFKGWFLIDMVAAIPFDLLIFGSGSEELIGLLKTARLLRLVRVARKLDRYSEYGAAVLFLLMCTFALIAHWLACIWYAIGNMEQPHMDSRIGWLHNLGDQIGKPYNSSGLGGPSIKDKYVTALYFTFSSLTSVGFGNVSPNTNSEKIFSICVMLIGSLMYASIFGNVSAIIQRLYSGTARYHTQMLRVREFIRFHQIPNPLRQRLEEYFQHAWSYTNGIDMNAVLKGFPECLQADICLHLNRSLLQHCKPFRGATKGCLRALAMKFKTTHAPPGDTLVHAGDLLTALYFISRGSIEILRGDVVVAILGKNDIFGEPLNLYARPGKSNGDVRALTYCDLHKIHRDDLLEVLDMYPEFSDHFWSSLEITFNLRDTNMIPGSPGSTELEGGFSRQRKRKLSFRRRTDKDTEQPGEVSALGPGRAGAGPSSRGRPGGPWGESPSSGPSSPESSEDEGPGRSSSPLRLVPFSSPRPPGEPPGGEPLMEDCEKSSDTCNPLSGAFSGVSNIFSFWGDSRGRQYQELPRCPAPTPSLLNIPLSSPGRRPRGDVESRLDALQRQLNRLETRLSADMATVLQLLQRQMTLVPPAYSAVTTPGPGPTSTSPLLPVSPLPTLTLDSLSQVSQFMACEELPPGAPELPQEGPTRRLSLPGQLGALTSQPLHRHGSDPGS

Row | Structure (SMILES) | IC50 ([1]; enzymatic, 5 μM ATP) | Ki [2] | IC50 ([1]; biochemical DNA-PK assay) | Ki [3] | IC50 [4] | inhibition of kinases of the PI3K isoenzyme family [5] | IC50 [6]
1 | O=c1ccc(C(O)c2ccc(F)c(-c3ncnc4cc(N5C6CCC5COC6)ccc34)c2)n[nH]1 (stereo not shown) [Example 75, 6-({4-Fluoro-3-[7-(3-oxa-8-aza-bicyclo-[3.2.1]oct-8-yl)-quinazolin-4-yl]phenyl}-hydroxymethyl)-2H-pyridazin-3-one] | > 30 nM | > 25000 nM | – | – | – | – | –
2 | NC(=O)C(c1ccc(F)c(-c2ncnc3cc(N4CCOCC4)ccc23)c1)c1nccn2ncnc12 (stereo not shown) [Example 280, 2-[4-Fluoro-3-(7-morpholin-4-yl-quinazolin-4-yl)-phenyl]-2-[1,2,4]-triazolo[1,5-a]-pyrazin-8-yl-acetamide] | – | – | 7 to 30 nM | > 25000 nM | 10000 to 30000 nM | – | –
3 | COc1ccc(C(O)c2ccc(F)c(-c3ncnc4cc(N5CCOCC5)c(F)cc34)c2)nn1 (stereo not shown) [Example 282, [4-Fluoro-3-(6-fluoro-7-morpholin-4-yl-quinazolin-4-yl)-phenyl]-(6-methoxy-pyridazin-3-yl)-methanol] | – | – | > 30 nM | > 25000 nM | 10000 to 30000 nM | – | –
4 | NC(=O)C(c1ccc(F)c(-c2ncnc3cc(N4CCOCC4)ccc23)c1)c1nncc2ccsc12 (stereo not shown) [Example 284, 2-[4-Fluoro-3-(7-morpholin-4-yl-quinazolin-4-yl)-phenyl]-2-thieno-[2,3-d}pyridazin-7-yl-acetamide] | – | – | 3 to 7 nM | > 25000 nM | 10000 to 30000 nM | – | –
5 | COc1nnc(Cl)cc1C(O)c1ccc(F)c(-c2ncnc3cc(N4CCOCC4)ccc23)c1 (stereo not shown) [Example 286, (6-Chloro-3-methoxy-pyridazin-4-yl)-[4-fluoro-3-(7-morpholin-4-yl-quinazolin-4-yl)-phenyl]methanol] | – | – | 7 to 30 nM | > 25000 nM | 5000 to 10000 nM | – | –
6 | CN1N=C(C(O)c2cc(-c3ncnc4cc(N5CCOCC5)ccc34)c(F)cc2Cl)CCC1=O (stereo not shown) [Example 288, 6-{[2-Chloro-4-fluoro-5-(7-morpholin-4-yl-quinazolin-4-yl)-phenyl]hydroxy-methyl}-2-methyl-4,5-dihydro-2H-pyridazin-3-one] | – | – | 7 to 30 nM | > 25000 nM | 5000 to 10000 nM | – | –
7 | OC(c1ccc(F)c(-c2ncnc3cc(N4CCOCC4)ccc23)c1)c1ncnc2ccoc12 (stereo not shown) [Example 443, [4-fluoro-3-(7-morpholin-4-yl-quinazolin-4-yl)-phenyl]furo[3,2-d}-pyrimidin-4-yl-methanol] | – | – | 3 to 7 nM | > 25000 nM | 500 to 5000 nM | – | –
8 | COc1ccc(C(O)c2cc(-c3ncnc4cc(N5CCOCC5)ccc34)ccc2Cl)nn1 (stereo not shown) [Example 459, [2-Chloro-5-(7-morpholin-4-yl-quinazolin-4-yl)-phenyl]-(6-methoxy-pyridazin-3-yl)-methanol] | – | – | 3 to 7 nM | > 25000 nM | 500 to 5000 nM | – | –
9 | COc1ccc(C(O)c2cc(-c3ncnc4cc(N5CCOCC5)ccc34)ccc2Cl)nn1 (stereo not shown) [Example 460, [2-Chloro-5-(7-morpholin-4-yl-quinazolin-4-yl)-phenyl]-(6-methoxy-pyridazin-3-yl)-methanol] | – | – | 3 to 7 nM | > 25000 nM | < 500 nM | – | –
10 | Cn1cnc2ccnc(C(O)c3ccc(F)c(-c4ncnc5cc(N6CCOCC6)ccc45)c3)c21 (stereo not shown) [Example 461, [4-Fluoro-3-(7-morpholin-4-yl-quinazolin-4-yl)-phenyl]-(3-methyl-3H-imidazo[4,5-c]-pyridin-4-yl)methanol] | – | – | < 3 nM | > 25000 nM | < 500 nM | – | –
11 | OC(c1ccc(F)c(-c2ncnc3cc(N4CCOCC4)ccc23)c1)c1ncnc2ccoc12 (stereo not shown) [Example 471, [4-Fluoro-3-(7-morpholin-4-yl-quinazolin-4-yl)-phenyl]furo[3,2-d}-pyrimidin-4-yl-methanol] | – | – | < 3 nM | > 25000 nM | < 500 nM | – | –
12 | CCN1CCN(CC(=O)Nc2ccc(-c3cccc4c(=O)cc(N5CCOCC5)oc34)c3sc4ccccc4c23)CC1 [KU-0060648] | – | – | – | – | – | potently inhibited | –
13 | O=c1cc(N2CCOCC2)oc2c(-c3cccc4c3sc3ccccc34)cccc12 [NU-7441] | – | – | – | – | – | – | 20 nM
